Article PMC11012799 (Molecules, 2024)

How the values were obtained:
[1] = system: Pseudomonas aeruginosa NCTC 6749; test: MIC, two-fold microdilution (EUCAST), P. aeruginosa reference strain; format: cell-based; conditions: Pseudomonas aeruginosa, NCTC6749, 18 h, read-out: MIC (µM) Pseudomonas aeruginosa NCTC 6749
Source text: A panel of reference bacteria, including Escherichia coli NCTC 8196, Staphylococcus aureus ATCC 6538, Klebsiella pneumoniae ATCC 13883, and Pseudomonas aeruginosa NCTC 6749, was used to assess the antibacterial activity of the nine tested aziridine phosphines (1–4) and aziridine phosphine oxides (5–9). The two-fold microdilution method, following EUCAST guidelines, was used to determine a minimal inhibitory concentration (MIC) of each compound, as presented in Table S1.
Antibacterial activity: The in vitro antibacterial activity of nine tested aziridine phosphines (1–4) and aziridine phosphine oxides (5–9) was evaluated against reference bacterial strains (E. coli NCTC 8196, S. aureus ATCC 6538, K. pneumoniae ATCC 13883, P. aeruginosa NCTC 6749) and 12 S. aureus clinical isolates, including two methicillin-resistant isolates (MRSA, D15 and D17) obtained from infected patients hospitalized at the Oncological Hospital in Lodz (Poland). All strains were kept frozen at −80 °C in Tryptic Soy Broth with 15% glycerol. The minimal inhibitory concentration (MIC) is defined as the lowest concentration of the compound that prevents visible growth of bacteria using the microdilution method followed the EUCAST guidelines. Each compound was added to 96-well microplates in two-fold dilutions at concentrations from 3.125 to 100 μM in Mueller–Hinton broth. […] Bacterial culture was added into wells at a density of 5 × 10^5 CFU mL^−1, and plates were incubated at 37 °C for 18 h. As a positive control, an untreated bacterial culture was used, and a clear culture medium served as a negative control. The optical density at OD600 was measured using the SpectraMax i3 Multi-Mode Platform (Molecular Devices, San Jose, CA, USA). Ciprofloxacin hydrochloride (CIP, Sigma-Aldrich, Darmstadt, Germany) was used as a reference antimicrobial drug.

Ishikawa cells = test: cells; format: cell-based, human; conditions: for IC50: Homo sapiens, Ishikawa, 24 h, read-out: IC50 (µM) Ishikawa; for selectivity index (SI) Ishikawa: efficacy against Ishikawa versus normal fibroblasts L929, SI > 1.0 = greater efficacy against cancer cells
Experimental: (§1) Considering our previous research and the literature reports on the antitumor activity of aziridine derivatives, aziridine phosphines (1–4) and aziridine phosphine oxides (5–9) were tested to investigate their potential anticancer activity. The in vitro effects on cell viability were assessed using the 3-(4,5-dimethylthiazol-2-yl)-2,5-diphenyltetrazolium bromide (MTT) assay on non-tumorigenic murine fibroblasts (L929) as well as two cancer cell lines: human cervical epithelioid carcinoma (HeLa) cells and endometrial adenocarcinoma (Ishikawa) cells.
(§2) Cell viability inhibition: The in vitro effects on cell viability were determined using the 3-(4,5-dimethylthiazol-2-yl)-2,5-diphenyltetrazolium bromide (MTT) assay on non-tumorigenic murine fibroblasts L929 (ATTC®—CCL-1) as well as two cancer cell lines: human cervical epithelioid carcinoma HeLa cells (ATTC®—CCL-2™) and endometrial adenocarcinoma Ishikawa cells (ECACC 99040201). Cells were cultured on 96-well microplates at a density of 1 × 10^4 cells/well following the international in Dulbecco’s Modified Eagle’s Medium (DMEM, Biowest) supplemented with 10% fetal bovine serum (FBS, Biowest, Nuaillé, France), 100 U/mL of penicillin, and 100 μg/mL of streptomycin (Biowest, Nuaillé, France). After overnight incubation at 37 °C and 5% CO2, the growth medium was removed and 100 μL of fresh media with two-fold dilutions of the tested compounds at concentrations of 3.125–100 μM were added. […] Untreated cells in medium were used as a positive control, while a clear culture medium served as a negative control.

HeLa cells [2] = test: cells; format: cell-based, human; conditions: for IC50: Homo sapiens, 24 h, read-out: IC50 (µM) HeLa; for selectivity index (SI) HeLa: efficacy against HeLa versus normal fibroblasts L929, SI > 1.0 = greater efficacy against cancer cells
Experimental: as §1, §2

HeLa cells [3] = test: LDH release assay; format: cell-based, human; conditions: 24 h, highest concentration of 50 µM
Experimental: In order to distinguish whether the cell viability inhibition was attributed to growth inhibition or cytotoxicity manifested by cell membrane disruption, the lactate dehydrogenase (LDH) release assay was conducted. LDH is a cytoplasmic enzyme rapidly released from cells upon membrane damage, a key feature of apoptosis, necrosis, and other forms of cell death. The released enzyme can be detected due to its ability to convert lactate into pyruvate and NADH, which is then specifically determined by a colorimetric assay.
Figure 3 The effects of 5 (blue) and 7 (green) on LDH release from HeLa cells. The cells were treated with compounds at a concentration range of 3.125–50 μM for 24 h at 37 °C and 5% CO2. Data are presented as the mean LDH release (%) ± SD of two experiments compared to untreated control (red). Statistical significance measured by two-way analysis of variance (ANOVA) is indicated by asterisks: (*) p < 0.05.
LDH release assay: The activity of 5 and 7 on cell membrane destabilization was determined with the CytoTox 96®Non-Radioactive Cytotoxicity Assay (Promega, Madison, WI, USA). […] After incubation, Stop Solution (50 μL) was added to each well, and the absorbance was measured at 490 nm using the SpectraMax i3 Multi-Mode Platform (Molecular Devices, San Jose, CA, USA). […]

CC(C)[C@@H]1CN1c1ccccc1P(=O)(c1ccccc1)c1ccccc1 [Compound 5]
MIC [1]: > 100 µM | IC50 (Ishikawa cells): 4.6 ± 2.3 µM | selectivity index (SI) Ishikawa (Ishikawa cells): 2.3 | IC50 (HeLa cells [2]): 6.4 ± 2.1 µM | selectivity index (SI) HeLa (HeLa cells [2]): 1.7 | LDH release compared to untreated control (HeLa cells [3]): significant LDH release

CC(C)C[C@H]1CN1c1ccccc1P(=O)(c1ccccc1)c1ccccc1 [Compound 7]
MIC [1]: > 100 µM | IC50 (Ishikawa cells): 10.5 ± 3.1 µM | selectivity index (SI) Ishikawa (Ishikawa cells): 1.7 | IC50 (HeLa cells [2]): 7.1 ± 2.6 µM | selectivity index (SI) HeLa (HeLa cells [2]): 2.5 | LDH release compared to untreated control (HeLa cells [3]): significant LDH release
